Activity calls are given as the source filed them. No cut-off for these calls is given here.
Legend:
HCT-116 = assay: Phototoxicity against human HCT116 cells at 1 uM after 24 hrs followed by halogen light irradiation by MTS assay; assay type: functional, cell-based
HeLa [1] = assay: Phototoxicity against human HeLa cells at 1 uM after 24 hrs followed by halogen light irradiation by MTS assay; assay type: functional, cell-based
[2] = Dark toxicity against human HCT116 cells assessed as cell viability at 1 uM after 24 hrs by MTS assay; assay type: cell-based, HCT-116; conditions: read-out: Survival
[3] = Dark toxicity against human HeLa cells assessed as cell viability at 1 uM after 24 hrs by MTS assay; assay type: cell-based; conditions: read-out: Survival
HeLa [4] = assay: Cellular uptake in human HeLa cells at 1 uM after 24 hrs by fluorescence microscopy; assay type: ADME, cell-based

Structure (SMILES) | Activity (HCT-116) | Activity (HeLa [1]) | viability at 24 h, 1 µM [2] [%] | viability at 24 h, 1 µM [3] [%] | Drug uptake (HeLa [4])
CC1(C)O[C@H]2[C@@H](O1)[C@@H](c1c3nc(c(-c4ccc(OC(F)(F)F)cc4)c4ccc([nH]4)c([C@H]4O[C@@H]5OC(C)(C)O[C@@H]5[C@H]5OC(C)(C)O[C@H]54)c4nc(c(-c5ccc(OC(F)(F)F)cc5)c5ccc1[nH]5)C=C4)C=C3)O[C@@H]1OC(C)(C)O[C@@H]12 | inactive | inactive |  |  | 
CC1(C)O[C@H]2[C@@H](O1)[C@@H](C=O)O[C@@H]1OC(C)(C)O[C@@H]12 | inactive | inactive |  |  | 
CSc1ccc(-c2c3nc(c([C@H]4O[C@@H]5OC(C)(C)O[C@@H]5[C@H]5OC(C)(C)O[C@H]54)c4ccc([nH]4)c(-c4ccc(SC)cc4)c4nc(c([C@H]5O[C@@H]6OC(C)(C)O[C@@H]6[C@H]6OC(C)(C)O[C@H]65)c5ccc2[nH]5)C=C4)C=C3)cc1 | Active | Active | > 90 | > 90 | Not Active
CC1(C)O[C@H]2[C@@H](O1)[C@@H](c1c3nc(c(-c4ccsc4)c4ccc([nH]4)c([C@H]4O[C@@H]5OC(C)(C)O[C@@H]5[C@H]5OC(C)(C)O[C@H]54)c4nc(c(-c5ccsc5)c5ccc1[nH]5)C=C4)C=C3)O[C@@H]1OC(C)(C)O[C@@H]12 | Active | Active | > 90 | > 90 | Active
COc1ccc(-c2c3nc(c([C@H]4O[C@@H]5OC(C)(C)O[C@@H]5[C@H]5OC(C)(C)O[C@H]54)c4ccc([nH]4)c(-c4ccc(OC)cc4)c4nc(c([C@H]5O[C@@H]6OC(C)(C)O[C@@H]6[C@H]6OC(C)(C)O[C@H]65)c5ccc2[nH]5)C=C4)C=C3)cc1 | Active | Active | > 90 | > 90 | Not Active
CC1(C)O[C@H]2[C@@H](O1)[C@@H](c1c3nc(c(-c4c(F)c(F)c(F)c(F)c4F)c4ccc([nH]4)c([C@H]4O[C@@H]5OC(C)(C)O[C@@H]5[C@H]5OC(C)(C)O[C@H]54)c4nc(c(-c5c(F)c(F)c(F)c(F)c5F)c5ccc1[nH]5)C=C4)C=C3)O[C@@H]1OC(C)(C)O[C@@H]12 | inactive | inactive |  |  | 
CC1(C)O[C@H]2[C@@H](O1)[C@@H](c1c3nc(c(-c4ccccc4)c4ccc([nH]4)c([C@H]4O[C@@H]5OC(C)(C)O[C@@H]5[C@H]5OC(C)(C)O[C@H]54)c4nc(c(-c5ccccc5)c5ccc1[nH]5)C=C4)C=C3)O[C@@H]1OC(C)(C)O[C@@H]12 | inactive | inactive |  |  | 
CC1(C)O[C@H]2[C@@H](O1)[C@@H](c1c3nc(c(-c4ccc([N+](=O)[O-])cc4)c4ccc([nH]4)c([C@H]4O[C@@H]5OC(C)(C)O[C@@H]5[C@H]5OC(C)(C)O[C@H]54)c4nc(c(-c5ccc([N+](=O)[O-])cc5)c5ccc1[nH]5)C=C4)C=C3)O[C@@H]1OC(C)(C)O[C@@H]12 | inactive | inactive |  |  | 
COc1cccc(OC)c1-c1c2nc(c([C@H]3O[C@@H]4OC(C)(C)O[C@@H]4[C@H]4OC(C)(C)O[C@H]43)c3ccc([nH]3)c(-c3c(OC)cccc3OC)c3nc(c([C@H]4O[C@@H]5OC(C)(C)O[C@@H]5[C@H]5OC(C)(C)O[C@H]54)c4ccc1[nH]4)C=C3)C=C2 | inactive | inactive |  |  | 
CC1(C)O[C@H]2[C@@H](O1)[C@@H](c1c3nc(c(-c4ccc(Cl)cc4)c4ccc([nH]4)c([C@H]4O[C@@H]5OC(C)(C)O[C@@H]5[C@H]5OC(C)(C)O[C@H]54)c4nc(c(-c5ccc(Cl)cc5)c5ccc1[nH]5)C=C4)C=C3)O[C@@H]1OC(C)(C)O[C@@H]12 | inactive | inactive |  |  | 

— ChEMBL document CHEMBL3217648, “Glycosylated porphyrin derivatives and their photodynamic activity in cancer cells” (Medchemcomm, 2011)
